Source: PMC9519442, “Genotype–phenotype correlations in WHIM syndrome: a systematic characterization of CXCR4^WHIM variants” (Genes and Immunity, 2022)

Legend:
[1] = test system: WT CXCR4 and CXCR4^WHIM variants; test: AKT activation assay (phosphoflow p-S473 AKT), K562 cells with stable CXCR4 expression; type: cell-based, human; conditions: 40 nM, 200 nM or 1 µM mavorixafor, 10 nM CXCL12 for 5 min
Description: (§1) Stable K562 clones expressing CXCR4 or Jurkat cells were seeded in starvation medium in 96-well plates overnight. After treatment, the cells were fixed with fixation solution (eBioscience, Thermo Fisher Scientific, Waltham, Massachusetts, USA) for 10 min at room temperature, then permeabilized for 5 min with ice-cold methanol on ice followed by a washing step with wash/permeabilization solution (eBioscience, Thermo Fisher Scientific, Waltham, Massachusetts, USA). Cells were then stained with Alexa Fluor 647 Mouse Anti-ERK1/2 (Product code 612593, pT202/pY204, 1/10 dilution, BD Biosciences) and Alexa Fluor 488 Mouse anti-Akt (Product code 560404, pS473, 1/10 dilution, BD Biosciences) for 1 h at room temperature in the dark. Cells were then washed 2 times in wash/permeabilization solution and resuspended in flow buffer (HBSS with Ca^2+ and Mg^2+ + 0.1% BSA + 20 mM HEPES pH 7.4). Samples were measured via flow cytometry (CytoFLEX Flow Cytometer) and analyzed in FCS Express software. After gating cells based on the FCS/SSC, MFI of the respective staining was exported for further analysis.

all CXCR4^WHIM variants = all CXCR4^WHIM variants (Homo sapiens, UniProt P61073); test: Ca2+ mobilization assay, K562 cells, pooled over variants; type: cell-based; conditions: K562, read-out: Emax of mavorixafor, Ca2+ mobilization, range over variants
Description: Stable K562 clones expressing CXCR4 (1 × 10^5 cells/well) were seeded in black 96-well plates with transparent bottom coated with poly-L-lysine (BioCoat®, Corning) and serum-starved for 24 h. Medium was removed and cells were loaded with 100 µl of fluo-4 AM (3 µM, Invitrogen) dye solution for 45 min at 37 °C. Dye solution was prepared by diluting fluo-4 powder in DMSO + 10% Pluronic F127 (Thermo Fisher Scientific, Waltham, Massachusetts, USA) to 3 mM and then preparing the final dilution in assay buffer (HBSS with Ca^2+ and Mg^2+, 20 mM HEPES, 0.375 g/l NaHCO3, 0.1% BSA + 0.77 g/L probenecid [Thermo Fisher Scientific]). Subsequently, 100 µl of assay buffer alone or assay buffer with compound dilutions was added and the plates were equilibrated in the plate reader for an additional 20 min at 37 °C. […] Raw traces were analyzed in SoftMax Pro 7 Software (Molecular Devices). The arbitrary units were calculated as the difference between maximal and minimal signal after treatment injection, normalized to the baseline signal before injection. Maximal effect (Emax) and half-maximal effective and inhibitory concentrations (EC50 and IC50, respectively) were calculated in Prism (GraphPad Software, San Diego, California, USA).

CXCR4 T318P fs*3 = biological target: T1, CXCR4 T318P fs*3 (Homo sapiens, UniProt P61073); test: Ca2+ mobilization assay, K562 cells with stable CXCR4 expression; type: cell-based; conditions: K562, read-out: Emax (% inhibition) of mavorixafor, Ca2+ mobilization
T1 construct: expressed in transfected cells; host or cells: K562
T1 sequence (P61073 with tags, fused parts or gaps, stated change not applied): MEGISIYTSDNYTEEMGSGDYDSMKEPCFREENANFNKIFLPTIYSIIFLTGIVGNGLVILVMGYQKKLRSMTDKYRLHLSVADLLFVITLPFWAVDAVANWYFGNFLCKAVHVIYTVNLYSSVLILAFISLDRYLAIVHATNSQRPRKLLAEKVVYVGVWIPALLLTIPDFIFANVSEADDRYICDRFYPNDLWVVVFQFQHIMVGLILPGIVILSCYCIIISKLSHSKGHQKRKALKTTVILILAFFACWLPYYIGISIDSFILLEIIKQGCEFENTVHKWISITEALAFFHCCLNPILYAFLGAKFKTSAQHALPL
Description: (§2) Stable K562 clones expressing CXCR4 (1 × 10^5 cells/well) were seeded in black 96-well plates with transparent bottom coated with poly-L-lysine (BioCoat®, Corning) and serum-starved for 24 h. Medium was removed and cells were loaded with 100 µl of fluo-4 AM (3 µM, Invitrogen) dye solution for 45 min at 37 °C. Dye solution was prepared by diluting fluo-4 powder in DMSO + 10% Pluronic F127 (Thermo Fisher Scientific, Waltham, Massachusetts, USA) to 3 mM and then preparing the final dilution in assay buffer (HBSS with Ca^2+ and Mg^2+, 20 mM HEPES, 0.375 g/l NaHCO3, 0.1% BSA + 0.77 g/L probenecid [Thermo Fisher Scientific]). Subsequently, 100 µl of assay buffer alone or assay buffer with compound dilutions was added and the plates were equilibrated in the plate reader for an additional 20 min at 37 °C. Jurkat cells (3 × 10^5 cells/well) were incubated with the Screen Quest Calbryte-520 Probenecid-Free and Wash-Free Calcium Assay Kit (AAT Bioquest, Sunnyvale, California, USA) according to manufacturer’s instructions. […] Raw traces were analyzed in SoftMax Pro 7 Software (Molecular Devices). The arbitrary units were calculated as the difference between maximal and minimal signal after treatment injection, normalized to the baseline signal before injection. Maximal effect (Emax) and half-maximal effective and inhibitory concentrations (EC50 and IC50, respectively) were calculated in Prism (GraphPad Software, San Diego, California, USA).

CXCR4 V320E fs*23 = biological target: T2, CXCR4 V320E fs*23 (Homo sapiens, UniProt P61073); test: as above; type: cell-based; conditions: K562, read-out: Emax (% inhibition) of mavorixafor, Ca2+ mobilization
T2 construct: expressed in transfected cells; host or cells: K562
T2 sequence (P61073 with tags, fused parts or gaps, stated change not applied): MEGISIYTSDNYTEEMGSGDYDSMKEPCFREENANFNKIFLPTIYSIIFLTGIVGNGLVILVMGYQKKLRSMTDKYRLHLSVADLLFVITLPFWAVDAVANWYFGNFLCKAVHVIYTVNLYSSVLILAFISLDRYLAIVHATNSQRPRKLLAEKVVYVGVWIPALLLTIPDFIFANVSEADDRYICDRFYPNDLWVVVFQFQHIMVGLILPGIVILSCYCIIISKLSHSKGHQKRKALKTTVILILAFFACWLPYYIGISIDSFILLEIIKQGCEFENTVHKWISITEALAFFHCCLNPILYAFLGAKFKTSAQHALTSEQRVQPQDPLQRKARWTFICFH
Description: as §2

CXCR4 S341P fs*25 = biological target: T3, CXCR4 S341P fs*25 (Homo sapiens, UniProt P61073); test: as above; type: cell-based; conditions: K562, read-out: Emax (% inhibition) of mavorixafor, Ca2+ mobilization
T3 construct: expressed in transfected cells; host or cells: K562
T3 sequence (P61073 with tags, fused parts or gaps, stated change not applied): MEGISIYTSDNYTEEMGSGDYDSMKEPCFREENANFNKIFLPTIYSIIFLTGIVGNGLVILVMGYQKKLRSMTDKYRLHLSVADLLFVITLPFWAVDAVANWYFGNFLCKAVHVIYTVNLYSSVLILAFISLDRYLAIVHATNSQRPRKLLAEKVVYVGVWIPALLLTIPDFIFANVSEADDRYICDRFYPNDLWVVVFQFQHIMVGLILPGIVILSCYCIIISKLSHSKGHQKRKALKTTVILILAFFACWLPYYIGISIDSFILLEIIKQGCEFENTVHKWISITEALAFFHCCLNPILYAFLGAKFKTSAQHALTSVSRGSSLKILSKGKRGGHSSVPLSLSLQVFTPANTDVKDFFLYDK
Description: as §2

CXCR4 S339C fs*4 = biological target: T4, CXCR4 S339C fs*4 (Homo sapiens, UniProt P61073); test: as above; type: cell-based; conditions: K562, read-out: Emax (% inhibition) of mavorixafor, Ca2+ mobilization
T4 construct: expressed in transfected cells; host or cells: K562
T4 sequence (P61073 with tags, fused parts or gaps, stated change not applied): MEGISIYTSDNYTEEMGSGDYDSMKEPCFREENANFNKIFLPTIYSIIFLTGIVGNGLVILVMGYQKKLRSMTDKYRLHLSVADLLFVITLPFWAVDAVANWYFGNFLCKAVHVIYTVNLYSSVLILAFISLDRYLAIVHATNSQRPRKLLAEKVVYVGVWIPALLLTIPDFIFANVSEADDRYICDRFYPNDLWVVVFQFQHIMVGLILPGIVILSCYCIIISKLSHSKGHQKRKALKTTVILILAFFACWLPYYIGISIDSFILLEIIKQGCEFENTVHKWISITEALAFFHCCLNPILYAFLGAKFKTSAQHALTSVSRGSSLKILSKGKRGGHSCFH
Description: as §2

CXCR4 S319C fs*24 = biological target: T5, CXCR4 S319C fs*24 (Homo sapiens, UniProt P61073); test: as above; type: cell-based; conditions: K562, read-out: Emax (% inhibition) of mavorixafor, Ca2+ mobilization
T5 construct: expressed in transfected cells; host or cells: K562
T5 sequence (P61073 with tags, fused parts or gaps, stated change not applied): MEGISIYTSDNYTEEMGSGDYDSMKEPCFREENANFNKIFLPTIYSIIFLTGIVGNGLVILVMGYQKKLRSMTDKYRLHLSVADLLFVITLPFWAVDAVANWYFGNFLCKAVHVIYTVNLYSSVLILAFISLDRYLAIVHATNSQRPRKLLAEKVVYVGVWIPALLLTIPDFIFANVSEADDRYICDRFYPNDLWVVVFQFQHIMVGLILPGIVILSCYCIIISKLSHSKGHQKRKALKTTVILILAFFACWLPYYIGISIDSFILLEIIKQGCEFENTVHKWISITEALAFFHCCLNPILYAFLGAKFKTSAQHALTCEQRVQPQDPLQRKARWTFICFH
Description: as §2

WT CXCR4 = biological target: T6, WT CXCR4 (Homo sapiens, UniProt P61073); test: as above; type: cell-based; conditions: K562, read-out: Emax (% inhibition) of mavorixafor, Ca2+ mobilization
T6 construct: cloned into pcDNA3.1(Hygro+) via NheI/EcoRV to give pcDNA3.1_CXCR4; expressed in transfected cells; host or cells: K562
T6 sequence (P61073 whole entry): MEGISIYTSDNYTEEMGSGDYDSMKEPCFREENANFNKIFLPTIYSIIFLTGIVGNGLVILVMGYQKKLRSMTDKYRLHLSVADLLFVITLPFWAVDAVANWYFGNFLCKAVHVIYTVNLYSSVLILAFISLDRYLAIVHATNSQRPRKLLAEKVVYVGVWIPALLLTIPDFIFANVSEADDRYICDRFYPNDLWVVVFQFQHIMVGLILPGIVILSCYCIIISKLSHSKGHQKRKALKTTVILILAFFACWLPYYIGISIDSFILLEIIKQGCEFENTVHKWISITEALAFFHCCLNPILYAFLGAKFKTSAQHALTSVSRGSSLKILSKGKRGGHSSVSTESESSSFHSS
Description: as §2

CXCR4 E343X = biological target: T7, CXCR4 E343X (Homo sapiens, UniProt P61073); test: as above; type: cell-based; conditions: K562, read-out: Emax (% inhibition) of mavorixafor, Ca2+ mobilization
T7 construct: expressed in transfected cells; host or cells: K562
T7 sequence (P61073 1-342 limits assumed): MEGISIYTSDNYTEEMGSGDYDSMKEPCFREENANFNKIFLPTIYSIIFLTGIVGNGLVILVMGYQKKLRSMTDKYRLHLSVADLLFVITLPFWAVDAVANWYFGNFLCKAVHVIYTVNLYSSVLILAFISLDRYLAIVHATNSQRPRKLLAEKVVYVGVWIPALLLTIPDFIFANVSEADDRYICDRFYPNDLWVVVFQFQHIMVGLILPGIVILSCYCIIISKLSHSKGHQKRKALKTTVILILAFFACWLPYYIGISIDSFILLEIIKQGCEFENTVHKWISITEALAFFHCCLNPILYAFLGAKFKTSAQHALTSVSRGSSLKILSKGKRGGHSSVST
Description: as §2

CXCR4 S338X = biological target: T8, CXCR4 S338X (Homo sapiens, UniProt P61073); test: as above; type: cell-based; conditions: K562, read-out: Emax (% inhibition) of mavorixafor, Ca2+ mobilization
T8 construct: expressed in transfected cells; host or cells: K562
T8 sequence (P61073 1-337 limits assumed): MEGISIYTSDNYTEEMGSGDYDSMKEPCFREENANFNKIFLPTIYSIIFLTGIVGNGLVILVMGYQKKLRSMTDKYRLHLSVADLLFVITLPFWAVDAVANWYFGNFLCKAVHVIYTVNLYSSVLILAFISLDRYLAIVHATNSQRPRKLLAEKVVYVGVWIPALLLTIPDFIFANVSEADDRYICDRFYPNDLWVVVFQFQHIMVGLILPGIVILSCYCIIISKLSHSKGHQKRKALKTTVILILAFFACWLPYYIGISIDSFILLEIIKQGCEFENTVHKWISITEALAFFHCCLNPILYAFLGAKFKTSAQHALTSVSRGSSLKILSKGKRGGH
Description: as §2

CXCR4 S339F fs*6 = biological target: T9, CXCR4 S339F fs*6 (Homo sapiens, UniProt P61073); test: as above; type: cell-based; conditions: K562, read-out: Emax (% inhibition) of mavorixafor, Ca2+ mobilization
T9 construct: expressed in transfected cells; host or cells: K562
T9 sequence (P61073 with tags, fused parts or gaps, stated change not applied): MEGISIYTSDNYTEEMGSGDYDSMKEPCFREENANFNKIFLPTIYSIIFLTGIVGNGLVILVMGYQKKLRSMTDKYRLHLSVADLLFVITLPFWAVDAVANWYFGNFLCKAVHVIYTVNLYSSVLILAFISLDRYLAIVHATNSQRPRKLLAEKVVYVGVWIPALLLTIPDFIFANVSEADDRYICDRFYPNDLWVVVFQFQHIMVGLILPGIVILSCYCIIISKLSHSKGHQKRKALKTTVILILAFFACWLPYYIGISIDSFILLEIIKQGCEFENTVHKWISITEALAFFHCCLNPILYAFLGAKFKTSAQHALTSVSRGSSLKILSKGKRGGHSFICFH
Description: as §2

CXCR4 S324V fs*20 = biological target: T10, CXCR4 S324V fs*20 (Homo sapiens, UniProt P61073); test: as above; type: cell-based; conditions: K562, read-out: Emax (% inhibition) of mavorixafor, Ca2+ mobilization
T10 construct: expressed in transfected cells; host or cells: K562
T10 sequence (P61073 with tags, fused parts or gaps, stated change not applied): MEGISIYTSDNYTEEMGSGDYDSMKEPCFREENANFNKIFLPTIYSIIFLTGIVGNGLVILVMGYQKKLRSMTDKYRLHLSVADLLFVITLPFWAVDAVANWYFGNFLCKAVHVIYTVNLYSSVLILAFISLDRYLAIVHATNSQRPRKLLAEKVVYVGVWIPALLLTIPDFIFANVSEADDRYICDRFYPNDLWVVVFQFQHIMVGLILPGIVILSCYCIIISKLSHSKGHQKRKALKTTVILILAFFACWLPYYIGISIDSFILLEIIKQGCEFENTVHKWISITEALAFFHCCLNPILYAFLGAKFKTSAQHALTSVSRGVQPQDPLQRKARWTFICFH
Description: as §2

CXCR4 G336X = biological target: T11, CXCR4 G336X (Homo sapiens, UniProt P61073); test: as above; type: cell-based; conditions: K562, read-out: Emax (% inhibition) of mavorixafor, Ca2+ mobilization
T11 construct: expressed in transfected cells; host or cells: K562
T11 sequence (P61073 1-335 limits assumed): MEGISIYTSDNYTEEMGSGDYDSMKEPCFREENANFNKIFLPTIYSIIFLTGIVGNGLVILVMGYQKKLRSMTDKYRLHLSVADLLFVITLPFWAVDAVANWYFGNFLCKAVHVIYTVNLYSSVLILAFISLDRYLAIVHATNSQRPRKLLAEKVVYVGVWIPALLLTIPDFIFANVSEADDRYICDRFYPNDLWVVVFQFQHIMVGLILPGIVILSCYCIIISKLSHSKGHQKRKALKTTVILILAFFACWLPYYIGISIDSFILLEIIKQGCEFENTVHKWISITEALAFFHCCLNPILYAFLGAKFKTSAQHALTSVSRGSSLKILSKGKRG
Description: as §2

CXCR4 L329Q fs*13 = biological target: T12, CXCR4 L329Q fs*13 (Homo sapiens, UniProt P61073); test: as above; type: cell-based; conditions: K562, read-out: Emax (% inhibition) of mavorixafor, Ca2+ mobilization
T12 construct: expressed in transfected cells; host or cells: K562
T12 sequence (P61073 with tags, fused parts or gaps, stated change not applied): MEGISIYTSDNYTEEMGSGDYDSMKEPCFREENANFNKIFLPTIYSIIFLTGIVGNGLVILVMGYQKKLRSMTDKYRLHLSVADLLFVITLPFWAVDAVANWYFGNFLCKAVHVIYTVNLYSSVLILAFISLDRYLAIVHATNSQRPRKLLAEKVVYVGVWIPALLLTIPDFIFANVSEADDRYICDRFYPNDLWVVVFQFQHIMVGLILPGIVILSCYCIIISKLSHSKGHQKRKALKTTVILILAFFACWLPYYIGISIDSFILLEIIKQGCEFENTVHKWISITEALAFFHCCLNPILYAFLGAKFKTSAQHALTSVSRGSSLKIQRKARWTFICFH
Description: as §2

CXCR4 E343K = biological target: T13, CXCR4 E343K (Homo sapiens, UniProt P61073, E343K); test: as above; type: cell-based; conditions: K562, read-out: Emax (% inhibition) of mavorixafor, Ca2+ mobilization
T13 construct: expressed in transfected cells; host or cells: K562
T13 sequence (P61073 whole entry E343K): as the sequence (P61073 whole entry) above, with E343K counted along it
Description: as §2

CXCR4 R334X = biological target: T14, CXCR4 R334X (Homo sapiens, UniProt P61073); test: as above; type: cell-based; conditions: K562, read-out: Emax (% inhibition) of mavorixafor, Ca2+ mobilization
T14 construct: expressed in transfected cells; host or cells: K562
T14 sequence (P61073 1-333 limits assumed): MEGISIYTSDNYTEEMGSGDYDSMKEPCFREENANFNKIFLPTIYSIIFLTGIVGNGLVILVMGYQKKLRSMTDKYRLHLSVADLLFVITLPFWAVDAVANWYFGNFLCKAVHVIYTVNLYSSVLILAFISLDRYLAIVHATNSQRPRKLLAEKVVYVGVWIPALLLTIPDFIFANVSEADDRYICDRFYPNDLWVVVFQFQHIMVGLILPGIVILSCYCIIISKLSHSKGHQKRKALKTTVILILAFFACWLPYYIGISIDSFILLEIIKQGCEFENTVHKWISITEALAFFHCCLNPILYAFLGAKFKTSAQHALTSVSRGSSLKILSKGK
Description: as §2

[2] = biological target: CXCR4 (WT/WT, RX/WT, RX/RX) (Homo sapiens, UniProt P61073); test: Ligand binding inhibition assay (AF647-CXCL12), Jurkat cells, across all cell lines
CXCR4 (WT/WT, RX/WT, RX/RX), sequence (P61073 1-333 limits assumed): as above
Description: Jurkat cells were washed once with assay buffer (HBSS + 20 mM HEPES buffer +0.2% BSA, pH 7.4) and then incubated for 15 min at room temperature with test compound diluted in assay buffer at dose-dependent concentrations. […] The cells were incubated for 30 min at room temperature. Thereafter, the cells were washed twice in assay buffer, fixed with 1% paraformaldehyde in PBS, and analyzed by flow cytometry (Cytoflex). […] The percentage of inhibition was calculated according to the formula: [1-((MFI-MFINC)/(MFIPC-MFINC))]*100 where MFI is the mean fluorescence intensity of cells in the presence of an inhibitor, MFINC is mean fluorescence intensity of cells in the absence of the ligand and MFIPC is mean fluorescence intensity of cells in the presence of the ligand alone.

[3] = test system: WT CXCR4 and CXCR4^WHIM variants; test: ERK activation assay (phosphoflow p-T202/Y204 ERK), K562 cells with stable CXCR4 expression; type: cell-based, human; conditions: 40 nM, 200 nM or 1 µM mavorixafor, 10 nM CXCL12 for 5 min
Description: as §1

[4] = biological target: CXCR4 (WT/WT, RX/WT, RX/RX Jurkat cells) (Homo sapiens, UniProt P61073); test: ERK activation assay (phosphoflow), all Jurkat cell lines tested; type: cell-based; conditions: 40 nM, 200 nM or 1 µM mavorixafor, 10 nM CXCL12 for 5 min
CXCR4 (WT/WT, RX/WT, RX/RX Jurkat cells), sequence (P61073 1-333 limits assumed): as above
Description: as §1

[5] = biological target: T15, R334X/R334X CXCR4 (RX/RX Jurkat cells) (Homo sapiens, UniProt P61073); test: ERK activation assay (phosphoflow p-T202/Y204 ERK), Jurkat cells; type: cell-based; conditions: 10 nM CXCL12 for 5 min
T15 construct: a cellular model of homozygous and heterozygous R334X CXCR4 in an endogenous locus; host or cells: Jurkat (E6-1, ATCC), CRISPR-Cas9 clones A3 and B5 (RX/RX)
T15 sequence (P61073 1-333 limits assumed): as above
Description: as §1

[6] = biological target: T16, R334X/WT CXCR4 (RX/WT Jurkat cells) (Homo sapiens, UniProt P61073); test: as above; type: cell-based; conditions: 10 nM CXCL12 for 5 min
T16 construct: cells endogenously expressing WT, R334X/WT or R334X/R334X CXCR4 at similar levels; endogenous in cells; host or cells: Jurkat E6-1 clone B2 (CRISPR-Cas9 edited, made at Applied StemCell)
T16 sequence (P61073 1-333 limits assumed): as above
T16 sequence (P61073 whole entry): as the sequence (P61073 whole entry) above
Description: as §1

Emax (all CXCR4^WHIM variants): 51 to 90% | Emax (CXCR4 T318P fs*3): 88% | Emax (CXCR4 V320E fs*23): 65% | Emax (CXCR4 S341P fs*25): 57% | Emax (CXCR4 S339C fs*4): 77% | Emax (CXCR4 S319C fs*24): 76% | Emax (WT CXCR4): 84% | Emax (CXCR4 E343X): 90% | Emax (CXCR4 S338X): 89% | Emax (CXCR4 S339F fs*6): 59% | Emax (CXCR4 S324V fs*20): 58% | Emax (CXCR4 G336X): 82% | Emax (CXCR4 L329Q fs*13): 51% | Emax (CXCR4 E343K): 66% | Emax (CXCR4 R334X): 72% | Efficacy of inhibition of CXCL12 binding to CXCR4 [2]: 100% | Effect on CXCL12-stimulated ERK activation [4]: inhibited | Concentration that normalized the hyperactive ERK signaling [5]: 200 nM | Concentration that normalized the hyperactive ERK signaling [6]: 40 nM
SMILES: NCCCCN(Cc1nc2ccccc2[nH]1)[C@H]1CCCc2cccnc21 [mavorixafor]
Effect on CXCL12-dependent AKT activation [1]: inhibited | Effect on CXCL12-dependent ERK activation [3]: inhibited
